According to US20220380341A1, “INHIBITORS OF HIV-1 NEF FOR THE TREATMENT OF HIV DISEASE” (priority 2018, published 2022):
Read-outs that look alike come from different tables or passages of the source.

Legend:
TZM-bl cell line = format: cell-based
Summary of the method: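 Luciferase read-out 48 h post-infection; compound at 1 μM during HIV-1NL4-3 infection of TZM-bl cells. Percent inhibition scaled to DMSO wild-type virus (0%) and DMSO Nef-defective virus (100% of Nef-dependent effect). Viability checked separately in uninfected cells by Cell Titer Blue.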

HIV-1NL4-3 = assay: HIV-1 infectivity assay in TZM-bl reporter cell line (LTR-luciferase, 48 h); format: cell-based; conditions: for inhibition at 1 µM: Human immunodeficiency virus 1, TZM-bl
Summary of the method: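 TZM-bl cells (HIV-1 LTR-luciferase) infected with HIV-1NL4-3 with compound at 1 μM; luciferase read 48 h later. Percent inhibition normalized to DMSO wild-type infection (0%) and Nef-defective HIV-1 infection (100% of Nef-dependent effect). Viability in uninfected TZM-bl cells by Cell Titer Blue.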

HIV-1 NefNL4-3 = HIV-1 NefNL4-3 (Human immunodeficiency virus type 1 group M subtype B, UniProt P03406, A33V/T15A/T51N/V11I); assay: Surface plasmon resonance binding to recombinant full-length Nef (NL4-3); conditions: for RU30/RUNef (extent of binding): response units at 30 μM relative to Nef immobilized on the SPR chip
[1] = 48 h, Table 1, TZM-bl cells, 1 μM, 48 h, 100% = Nef-defective HIV-1, read-out: HIV-1 Infectivity % Inhibition Norm. to Δ-Nef @ 1 μM
[2] = 1.0 μM, TZM-bl reporter cell line, Table 4, read-out: % Infectivity Inhibition
[3] = KD, M, Table 4, SPR fit 2-step induced fit, KD = koff/kon × koff2/(koff2 + kon2)
[4] = Table 4, 2-step induced fit, T = 1/koff2
[5] = read-out: Nef NL4-3 Binding, SPR 1:1 or 2-site fitting KD2, Table 1, 2-site fit, second component
[6] = KD, M, Table 4, SPR fit 1:1 Langmuir, KD = koff/kon
[7] = Table 4, 1:1 Langmuir fit, T = 1/koff
[8] = Nef NL4-3 Binding, SPR 2-state fitting KD, Table 1, 2-step induced-fit model

SMILES	Percent Viability @ 1 μM (TZM-bl cells) (TZM-bl cell line; human, 1 μM) [%]	inhibition at 1 µM (HIV-1NL4-3; [1]) [%]	Kd (HIV-1 NefNL4-3) [nM]	Percent Viability @ 1 μM (TZM-bl cells) (TZM-bl cell line) [%]	HIV-1 Infectivity % Inhibition Norm. to Δ-Nef @ 1 μM (HIV-1NL4-3; Table 1, TZM-bl cells, 1 μM, 48 h, 100% = Nef-defective HIV-1) [%]	Kd (HIV-1 NefNL4-3; Table 1, 1:1 Langmuir fit where the KD2 cell says '1 to 1 fitting', else 2-site fit, read-out: Nef NL4-3 Binding, SPR 1:1 or 2-site fitting KD1) [nM]	% Cell Viability (TZM-bl cell line; human, 1 μM) [%]	inhibition at 1 µM (HIV-1NL4-3; [2]) [%]	Kd (HIV-1 NefNL4-3; [3]) [nM]	T, minutes (residence time) (HIV-1 NefNL4-3; [4])	Kd (HIV-1 NefNL4-3; [5]) [nM]	RU30/RUNef (extent of binding) (HIV-1 NefNL4-3)	Kd (HIV-1 NefNL4-3; [6]) [nM]	T, minutes (residence time) (HIV-1 NefNL4-3; [7]) [E + 01 minutes]	Kd (HIV-1 NefNL4-3; [8]) [nM]	Nef NL4-3 Binding, SPR 1:1 or 2-site fitting KD1 (HIV-1 NefNL4-3; Table 1, 1:1 Langmuir fit where the KD2 cell says '1 to 1 fitting', else 2-site fit)	Kd (HIV-1 NefNL4-3; Nef NL4-3 Binding, SPR 1:1 or 2-site fitting KD2, Table 1, 2-site fit, second component) [nM]
CC(=O)N1CCC(c2nn(-c3nc4cc(Cl)ccc4[nH]3)c(O)c2CCC2CCOCC2)CC1 [Compound I-703, 1-{4-[1-(5-chloro-1H-1,3-benzodiazol-2-yl)-5-hydroxy-4-[2-(oxan-4-yl)ethyl]-1H-pyrazol-3-yl]piperidin-1-yl}ethan-1-one]	99.2	-8.1	1540	–	–	–	–	–	–	–	–	–	–	–	–	–	–
Cn1cccc(-c2nn(-c3nc4ccccc4[nH]3)c(O)c2CCc2ccc(F)cc2)c1=O [Compound I-127, 3-[1-(1H-1,3-benzodiazol-2-y1)-4-[2-(4-fluorophenyl)ethyl]-5-hydroxy-1H-pyrazol-3-yl]-1-methyl-1,2-dihydropyridin-2-one]	–	–	–	100.0	2.4	2100	–	–	–	–	–	–	–	–	–	–	–
O=C(OCc1ccccc1)N1CCCC(c2nn(-c3nc4ccccc4[nH]3)c(O)c2CCc2ccc(F)cc2)C1 (stereo not drawn) [Compound I-160, benzyl 3-[1-(1H-1,3-benzodiazol-2-yl)-4-[2-(4-fluorophenyl)ethyl]-5-hydroxy-1H-pyrazol-3-yl]piperidine-1-carboxylate]	93.7	33.4	0.0063	–	–	–	93.7	33.4	0.00238	7.41E + 06 minutes	2620	1.74E- 02	–	–	–	–	–
Oc1c(CCc2ccc(F)cc2)c(C2CCOCC2)nn1-c1nc2cccnc2[nH]1 [Compound I-314, 4-[2-(4-fluorophenyl)ethyl]-1-{3H-imidazo[4,5-b]pyridin-2-yl}-3-(oxan-4-yl)-1H-pyrazol-5-ol]	100.1	-1	705	–	–	–	100	0	–	–	–	2.97E- 03	705	1.79	–	–	–
O=C1CN(Cc2nn(-c3nc4ccccc4[nH]3)c(O)c2CCc2ccc(F)cc2)CCN1c1ccccc1 [Compound I-155, 4-{[1-(1H-1,3-benzodiazol-2-yl)-4-[2-(4-fluorophenyl)ethyl]-5-hydroxy-1H-pyrazol-3-yl]methyl}-1-phenylpiperazin-2-one]	98.2	-5.9	3400	–	–	–	–	–	–	–	–	–	–	–	–	–	–
Oc1c(CC2CCOCC2)c(C2CC2)nn1-c1nc2cccnc2[nH]1 [Compound I-315, 3-cyclopropyl-1-{3H-imidazo[4,5-b]pyridin-2-yl}-4-[(oxan-4-yl)methyl]-1H-pyrazol-5-ol]	100.6	28.5	1880	–	–	–	–	–	–	–	–	–	–	–	–	–	–
COC(=O)N1CCC(c2nn(-c3nc4ccccc4[nH]3)c(O)c2CCc2ccc(F)cc2)CC1 [Compound I-740, methyl 4-[1-(1H-1,3-benzodiazol-2-yl)-4-[2-(4-fluorophenyl)ethyl]-5-hydroxy-1H-pyrazol-3-yl]piperidine-1-carboxylate]	89.8	39.1	157	–	–	–	89.8	39.1	544	1.26E + 01 minutes	3380	7.81E- 03	–	–	544	–	–
O=C(C1CCC(O)CC1)N1CCC(c2nn(-c3nc4ccccc4[nH]3)c(O)c2CCc2ccc(F)cc2)CC1 (stereo not drawn) [Compound I-735, 1-(1H-1,3-benzodiazol-2-yl)-4-[2-(4-fluorophenyl)ethyl]-3-[1-(4-hydroxycyclohexanecarbonyl)piperidin-4-yl]-1H-pyrazol-5-ol]	96.9	38.8	46.9	–	–	–	96.9	38.8	0.498	6.44E + 03 minutes	2800	6.53E- 03	–	–	0.498	–	–
CC(C)(C)OC(=O)N1CCC(Cc2nn(-c3nc4ccccc4[nH]3)c(O)c2CCc2ccc(F)cc2)C1 (stereo not drawn) [Compound I-206, tert-butyl 3-{[1-(1H-1,3-benzodiazol-2-yl)-4-[2-(4-fluorophenyl)ethyl]-5-hydroxy-1H-pyrazol-3-yl]methyl}pyrrolidine-1-carboxylate]	90.6	35.2	–	–	–	–	–	–	–	–	–	–	–	–	–	No Interaction	–
Oc1c(CCc2ccc(F)cc2)c(CNCc2cccnc2)nn1-c1nc2ccccc2[nH]1 [Compound I-811, 1-(1H-1,3-benzodiazol-2-yl)-4-[2-(4-fluorophenyl)ethyl]-3-({[(pyridin-3-yl)methyl]amino}methyl)-1H-pyrazol-5-ol]	100.7	8.3	559	–	–	–	100	8.3	12600	3.83E- 01 minutes	2380	3.57E- 03	–	–	12600	–	–
O=C(CN1CCOCC1)N1CCCC1c1nn(-c2nc3ccccc3[nH]2)c(O)c1CCc1ccc(F)cc1 (stereo not drawn) [Compound I-763, 1-{2-[1-(1H-1,3-benzodiazol-2-yl)-4-[2-(4-fluorophenyl)ethyl]-5-hydroxy-1H-pyrazol-3-yl]pyrrolidin-1-yl}-2-(morpholin-4-yl)ethan-1-one]	97.6	11	422	–	–	–	–	–	–	–	–	–	–	–	–	–	–
Nc1ccc(S(=O)(=O)N2CCC(c3nn(-c4nc5ccccc5[nH]4)c(O)c3CCc3ccc(F)cc3)CC2)cc1 [Compound I-749, 3-[1-(4-aminobenzenesulfonyl)piperidin-4-yl]-1-(1H-1,3-benzodiazol-2-yl)-4-[2-(4-fluorophenyl)ethyl]-1H-pyrazol-5-ol]	78.7	64.1	1.26	–	–	–	–	–	–	–	755	–	–	–	402	–	–
CC(C)(C)OC(=O)NCc1nn(-c2nc3ccccc3[nH]2)c(O)c1CCc1ccc(F)cc1 [Compound I-212, tert-butyl N-{[1-(1H-1,3-benzodiazol-2-yl)-4-[2-(4-fluorophenyl)ethyl]-5-hydroxy-1H-pyrazol-3-yl]methyl}carbamate]	92.9	50.9	538	–	–	–	–	–	–	–	–	–	–	–	2320	–	1480
CC(C)(C)c1nn(-c2nc3ccccc3[nH]2)c(O)c1CCc1ccc(F)cc1 [Compound I-130, 1-(1H-1,3-benzodiazol-2-yl)-3-tert-butyl-4-[2-(4-fluorophenyl)ethyl]-1H-pyrazol-5-ol]	98.7	43.6	702	–	–	–	98.7	43.6	3800	1.15E + 01 minutes	13000	9.49E- 03	–	–	3800	–	–
Oc1c(CCc2ccc(F)cc2)c(C2CCN(Cc3cccnc3)CC2)nn1-c1nc2ccccc2[nH]1 [Compound I-803, 1-(1H-1,3-benzodiazol-2-yl)-4-[2-(4-fluorophenyl)ethyl]-3-{1-[(pyridin-3-yl)methyl]piperidin-4-yl}-1H-pyrazol-5-ol]	100.4	3.2	817	–	–	–	100	3.2	–	–	–	1.69E- 03	817	1.59	–	–	–
